Reference: PMC6802645, “6′-Sialylgalactose inhibits vascular endothelial growth factor receptor 2-mediated angiogenesis” (Experimental & Molecular Medicine, 2019)

Biological target: T1, VEGFR-2 (vascular endothelial growth factor receptor 2) (Homo sapiens, UniProt P35968)
T1 construct: gene KDR; second and third IgG-like domains of VEGFR-2 (VEGFR-2 IG3)
Experiment: SPR (Biacore T100, VEGFR-2 IG3 immobilized by amine coupling on CM5)
Type: binding

T1 sequence (P35968 141-320 limits assumed): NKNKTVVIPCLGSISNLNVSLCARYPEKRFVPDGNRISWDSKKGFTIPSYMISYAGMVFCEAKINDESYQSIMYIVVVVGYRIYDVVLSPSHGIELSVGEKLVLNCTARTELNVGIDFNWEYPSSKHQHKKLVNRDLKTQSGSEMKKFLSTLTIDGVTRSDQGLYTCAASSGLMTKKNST

| Kd [nM] | SMILES |
| --- | --- |
| 2.35 | CC(=O)N[C@H]1[C@H]([C@H](O)[C@H](O)CO)OC(OC[C@H]2OC(O)[C@H](O)[C@@H](O)[C@H]2O)(C(=O)O)C[C@@H]1O (some centres unmarked) [6SG, 6′-sialylgalactose] |
| 3.05 | CC(=O)N[C@H]1[C@H]([C@H](O)[C@H](O)CO)OC(OC[C@H]2O[C@@H](O[C@H]3[C@H](O)[C@@H](O)C(O)O[C@@H]3CO)[C@H](O)[C@@H](O)[C@H]2O)(C(=O)O)C[C@@H]1O (some centres unmarked) [6SL, 6′-sialyllactose] |
